Source: PubChem BioAssay AID489033 (Sanford-Burnham Center for Chemical Genomics, 2010)
Activity calls are given as the source filed them. How the calls were made is not given here.

Test system: 697B B-cell line, NF-kB luciferase reporter luminescence
Assay: NF-kB reporter inhibition in B cells, dose response, selectivity assay for T-cell antigen receptor NF-kB inhibitors, 697B cells, luminescence (AID 489033)

C=CCOC(=O)c1[nH]c2c(c1C)C(=O)CC(c1ccco1)C2 (stereo unspecified)
IC50: > 80 µM (inactive)

Cn1cc(/C=N/n2cnc3scc(-c4ccc(Cl)cc4)c3c2=O)c2ccccc21
IC50: > 80 µM (inactive)

Cc1cccc(N2CCN(C(=O)c3c(-c4ccccc4Cl)noc3C)CC2)c1C
IC50: > 80 µM (inactive)

Cc1ccnc2c1ccc1c(C)ccnc12
IC50: 10.1 µM

COc1ccc(NC(=O)Cn2nnc(-c3ccccc3NS(=O)(=O)c3ccc(OC)cc3)n2)cc1
IC50: > 80 µM (inactive)

CCOc1ccc(NC(=O)c2cc3c(C)nc4ccccc4c3o2)cc1
IC50: > 80 µM (inactive)

COc1cc([C@@H]2c3cc4c(cc3[C@@H](OC)[C@H]3COC(=O)[C@H]23)OCO4)cc(OC)c1O
IC50: > 80 µM (inactive)

CCOCCOC(=O)c1[nH]c2c(c1C)C(=O)CC(c1cccs1)C2 (stereo unspecified)
IC50: > 80 µM (inactive)

CCOCCCNC(=O)c1cc2c(=O)n3cccc(C)c3nc2n1C
IC50: > 80 µM (inactive)

COc1ccc(C(=O)/C(C#N)=N/Nc2ccc([N+](=O)[O-])cc2)cc1
IC50: 18.6 µM

O=c1cc(-c2cccc(F)c2)[nH]c2ccccc12
IC50: > 80 µM (inactive)

CCCCC(=O)NC(c1ccc(Cl)cc1)c1ccc2cccnc2c1O (stereo unspecified)
IC50: > 80 µM (inactive)

CC1=Nc2ccccc2/C1=C\c1sc(Nc2ccc(C)cc2)nc1O
IC50: 61 µM (inactive)

COC(=O)C[C@]1(C(=O)OC)CN(C#N)N(c2ccc(Cl)cc2)C12c1ccccc1-c1ccccc12
IC50: 4.43 µM

CC(C)c1ccc(/C=N/Nc2ccc(C(=O)O)cc2)cc1
IC50: 10.7 µM

COc1ccccc1CNS(=O)(=O)c1ccc(-c2cc(C)no2)cc1
IC50: > 80 µM (inactive)

O=C(Sc1cccc2cccnc12)c1ccccc1Br
IC50: 3.61 µM

COc1ccc(CS(=O)(=O)/C(Cl)=C(/Cl)C(=O)Nc2ccc(OC)nc2)cc1
IC50: 3.32 µM

O=S(=O)(C/C(=C/CO)S(=O)(=O)c1ccccc1)c1ccccc1
IC50: 0.28 µM

COc1ccc(C(=O)c2ccc(N(C)C)cc2)c(OC)c1
IC50: > 80 µM (inactive)

CN=c1scc(-c2cccs2)n1/N=C/c1ccccc1O
IC50: 1.33 µM

CCOc1ccc(N(C)S(=O)(=O)c2ccc(-c3cc(C)no3)s2)cc1
IC50: > 80 µM (inactive)

CC1=NNC(=O)/C1=C\c1cn(-c2ccccc2)nc1-c1ccc(Cl)cc1
IC50: 6.48 µM

Cc1c(C(=O)N/N=C/c2ccc(Cl)cc2)[nH]c2ccc(Cl)cc12
IC50: > 80 µM (inactive)

COc1ccc(C(=O)N(C)Cc2cnn(Cc3ccccc3)c2)cc1S(=O)(=O)N1CCOCC1
IC50: > 80 µM (inactive)

CC(C)CC[n+]1ccccc1/C=C/c1ccc(N(C)C)cc1
IC50: > 80 µM (inactive)

CCn1nc(C)c(CNC(=O)c2ccc(OC3CCN(Cc4ccccn4)CC3)cc2)c1C
IC50: > 80 µM (inactive)

Cc1cccc(NS(=O)(=O)c2ccc(-c3cnc(C4CC4)o3)cc2)c1C
IC50: 36.7 µM (inactive)

C=C1C(=O)O[C@H]2C[C@@H](C)[C@@H]3C=CC(=O)[C@@]3(C)C[C@H]12
IC50: 1.25 µM

CCc1cc(C(=O)NC2CCCc3c2cnn3-c2cccc(C)c2C)n(C)n1 (stereo unspecified)
IC50: > 80 µM (inactive)

CCOC(=O)c1[nH]c(C=O)c(C(=O)OCC)c1C
IC50: 59.5 µM (inactive)

Cn1nc([N+](=O)[O-])nc1Sc1nnc(-c2ccccc2)o1
IC50: 17.8 µM

O=C(Nc1cccc2ccccc12)OC1C=CS(=O)(=O)C1 (stereo unspecified)
IC50: 10.7 µM

Cn1ncnc2c(=O)n(C)c(=O)nc1-2
IC50: 2.85 µM

Cc1cc(NC(=O)CSc2nc3c(sc4ccccc43)c(=O)n2CCCN2CCOCC2)n[nH]1
IC50: > 80 µM (inactive)

CC1Cc2cc(-c3csc(NC(=O)Cc4cccs4)n3)ccc2N1S(C)(=O)=O (stereo unspecified)
IC50: 13.9 µM

CC1CC(C)CN(S(=O)(=O)c2ccc(NC(=O)c3ccc(=O)[nH]c3)cc2)C1 (stereo unspecified)
IC50: > 80 µM (inactive)

O=C(Nc1nc(-c2ccccn2)cs1)c1ccc(Cl)s1
IC50: < 0.16 µM

Cc1ccc(-c2cc3c(N=O)c4ccccc4c-3n[nH]2)cc1
IC50: 4.58 µM

CC1=CC(C)(C)N(S(=O)(=O)c2ccc(C)cc2)c2cc(C)ccc21
IC50: > 80 µM (inactive)

CC(Oc1ccc(Cl)cc1Cl)c1nc(-c2ccc(NC(=O)c3ccncc3)cc2)no1 (stereo unspecified)
IC50: 29.5 µM (inactive)

CCCCc1ccc(NC(=O)c2ccc(N(C)S(C)(=O)=O)cc2)cc1
IC50: > 80 µM (inactive)

CC1CCCN(c2ncnc3c2cnn3-c2ccc(Cl)cc2)C1 (stereo unspecified)
IC50: < 0.16 µM

Cc1cc(/C=C2\Sc3ccccc3N2C)cc(C)[n+]1CC1CCCO1 (stereo unspecified)
IC50: > 80 µM (inactive)

COc1cccc(OC)c1C1=NCC(=O)Nc2c1oc1ccc(Br)cc21
IC50: 56.8 µM (inactive)

Clc1cccc(Cl)c1OCCOCCNCc1ccccc1
IC50: > 80 µM (inactive)

Cc1ccc(C(=O)c2cc([N+](=O)[O-])ccc2N2CCCCC2)c(C)c1
IC50: > 80 µM (inactive)

O=C(OCCN1C(=O)c2cccc3c(N4CCOCC4)ccc(c23)C1=O)c1ccc(Cl)cc1
IC50: > 80 µM (inactive)

CCCN1C=CC(=C2C(=O)c3ccccc3C2=O)C=C1
IC50: < 0.16 µM

Cc1cccc(N2CCN(C(=O)c3ccc(CS(=O)(=O)c4ccccc4C)o3)CC2C)c1 (stereo unspecified)
IC50: 22.3 µM (inactive)

COc1ccc(S(=O)(=O)N2N=C(C)Oc3ccccc3C2=O)cc1
IC50: > 80 µM (inactive)

c1ccc(-c2cccc(-c3ccccn3)n2)nc1
IC50: 6.4 µM

CCCCN=C[C@]12CCC(O)CC1(O)CCC1[C@@H]2CC[C@]2(C)[C@H](C3C=CC(=O)O3)CCC12O (stereo partly specified)
IC50: 2.49 µM

COc1ccc(Nc2nc3cc(C)ccc3cc2C#N)c(OC)c1
IC50: > 80 µM (inactive)

O=C(O)c1ccc(N/N=C/c2ccc3c(c2)OCO3)cc1
IC50: 1.04 µM

CCCCCCCOc1ccc(OC(=O)c2cccnc2)cc1
IC50: > 80 µM (inactive)

COC(=O)[C@]12OC[C@]34C([C@@H](O)[C@@H]1O)[C@]1(C)CC(=O)C(O)=C(C)[C@@H]1C[C@H]3OC(=O)[C@H](O)[C@@H]24 (stereo partly specified)
IC50: 0.23 µM

COc1cc2c(c(OC)c1OC)-c1ccc(OC)c(=O)cc1[C@@H](NC(C)=O)CC2
IC50: > 80 µM (inactive)

Cc1cc(=O)oc2cc(OCC3CC(c4ccccc4Cl)=NO3)ccc12 (stereo unspecified)
IC50: > 80 µM (inactive)

O=C(N/N=C\c1c(O)ccc2ccccc12)c1cncc(Br)c1
IC50: > 80 µM (inactive)

CC#CC(=O)N1CCC(n2nccc2NC(=O)c2ccc3c(c2)OCO3)CC1
IC50: > 80 µM (inactive)

CCC(C)C(=O)N[C@@H](c1ccccc1)[C@@H](O)C(=O)O[C@H]1C[C@@]2(O)[C@@H](OC(=O)c3ccccc3)C3[C@](C)(C(=O)[C@H](OC(C)=O)C(=C1C)C2(C)C)[C@@H](O)C[C@H]1OC[C@@]31OC(C)=O (stereo partly specified)
IC50: > 80 µM (inactive)

COc1ccc(/C=N\NC(=O)c2ccccc2F)cc1COc1ccc(F)cc1F
IC50: > 80 µM (inactive)

COc1ccc(Cl)cc1NC(=O)CN(C)CC(=O)Nc1ccccc1N1CCOCC1
IC50: > 80 µM (inactive)

Cc1ccc(Nc2nc(-c3c(C)nc4ncccn34)cs2)cc1
IC50: > 80 µM (inactive)

Cc1ccc2nc(SCC(=O)Nc3cc(C(F)(F)F)ccc3N3CCOCC3)[nH]c2c1
IC50: > 80 µM (inactive)

Cc1nc2c(=O)n(C)c(=O)nc-2n(C)n1
IC50: 3.36 µM

COc1cc(C2c3cc4c(cc3CC3COC(=O)C32)OCO4)cc(OC)c1OC (stereo unspecified)
IC50: > 80 µM (inactive)

Cc1ccc(S(=O)(=O)/N=C2\C=C(Nc3ccc(O)cc3)C(=O)c3ccccc32)cc1
IC50: 2.04 µM

Clc1ccc(CSc2nncn2-c2ccc3c(c2)OCCO3)cc1
IC50: 70 µM (inactive)

COc1ccc(OC)c(C2CC(=O)c3c([nH]c(C(=O)OC(C)C)c3C)C2)c1 (stereo unspecified)
IC50: > 80 µM (inactive)

CCC(=O)NC(c1cccs1)c1ccc2cccnc2c1O (stereo unspecified)
IC50: > 80 µM (inactive)

O=C(N[C@@H](Cc1ccccc1)C(=O)CCl)OCc1ccccc1
IC50: 5.69 µM

CCCc1cc(C(=O)Nc2cc(C)ccc2O)no1
IC50: > 80 µM (inactive)

O=C(Sc1cccc2cccnc12)c1ccc(F)cc1
IC50: 1.03 µM

Cc1cc(C)cc(NC(=O)c2ccc([N+](=O)[O-])o2)c1
IC50: 21.3 µM (inactive)

COC(=O)C1=C(CN2CCCc3ccccc32)NC(=O)NC1c1ccc(F)cc1 (stereo unspecified)
IC50: 3.48 µM

COc1ccccc1N1CCN(C(=O)c2ccc(-c3ccc(Cl)cc3)o2)CC1
IC50: 66.5 µM (inactive)

COc1ccc(NS(=O)(=O)c2ccc(-c3cnc(C4CC4)o3)cc2)cc1OC
IC50: > 80 µM (inactive)

O=C(Nc1nc(-c2ccccc2)cs1)c1ccc(N2CCOCC2)c([N+](=O)[O-])c1
IC50: 6.64 µM

CC(=O)c1ccc(Oc2cc(C)nc(-n3nc(C)cc3C)n2)cc1
IC50: > 80 µM (inactive)

CCC(C)(C)c1ccc(OCCCC[n+]2cccc(C)c2C)c(C(C)(C)CC)c1
IC50: 16.2 µM

COc1ccc2c(C)nc(Nc3nc(-c4ccccc4)cc(=O)[nH]3)nc2c1
IC50: > 80 µM (inactive)

CCCCCCCCn1c2c(c(=N)c3ccccc31)CCC2
IC50: 2.31 µM

CCCC(=O)NC(c1ccc(C)cc1)c1ccc2cccnc2c1O (stereo unspecified)
IC50: > 80 µM (inactive)

C#CC[N+](C)(C)CCCCCCCCCCCC
IC50: 2.56 µM

CCOC(=O)c1[nH]c(C)c(C(=O)c2cc(F)ccc2F)c1C
IC50: > 80 µM (inactive)

CCN(CC)c1ccc2nc3ccccc3[n+](CC)c2c1
IC50: 45.8 µM (inactive)

C(=N\Nc1nc2ccccc2s1)/c1ccccn1
IC50: 0.39 µM

CCCCC(=O)NC(c1ccc(N(C)C)cc1)c1ccc2cccnc2c1O (stereo unspecified)
IC50: > 80 µM (inactive)

CCOC(=O)COc1cccc2c(=O)n(CC(=O)NCc3ccc(F)cc3)ccc12
IC50: > 80 µM (inactive)

CCCC(=O)NC(c1ccccc1Cl)c1ccc2cccnc2c1O (stereo unspecified)
IC50: > 80 µM (inactive)

Cc1c(C(=O)N/N=C/c2c(O)ccc3ccccc23)nnn1-c1nonc1N
IC50: 34.7 µM (inactive)

COC(=O)c1cn(NC(=O)c2cc([N+](=O)[O-])ccc2F)c(=O)c2ccccc12
IC50: 2.43 µM

CCn1c(C)cc(C(=O)CN2C(=O)c3ccccc3S2(=O)=O)c1C
IC50: 0.74 µM

CS(=O)(=O)c1ccc(Sc2nc3ccccc3s2)c([N+](=O)[O-])c1
IC50: 1.11 µM

COc1cccc(-c2cc(=O)c3cc(NC(=O)c4ccc(N(C)C)cc4)ccc3[nH]2)c1
IC50: > 80 µM (inactive)

CCOC(=O)c1ccccc1NS(=O)(=O)c1ccc(OCC)cc1
IC50: > 80 µM (inactive)

CCOC(=O)C1CCN(S(=O)(=O)c2c(Cl)ccc3nonc23)CC1
IC50: 1.06 µM

CCOc1ccc(Nc2cc(C)nc(-n3nc(C)cc3C)n2)cc1
IC50: > 80 µM (inactive)

O=S(=O)(Nc1cccc2ncccc12)c1cccs1
IC50: 0.34 µM
